Test results taken from ChEMBL document CHEMBL3120092, “Discovery of GS-9669, a thumb site II non-nucleoside inhibitor of NS5B for the treatment of genotype 1 chronic hepatitis C infection” (J Med Chem, 2014).

What was measured:
[1] = Lipophilicity, log D of the compound by chromatography; format: physicochemical
[2] = Cytotoxicity against human MT4 cells after 5 days by Cell Titre Glo assay; format: cell-based
Hepatitis C virus [3] = assay: Antiviral activity against Hepatitis C virus H77 genotype 1a infected in human HuH7 cells assessed as plasma adjusted antiviral potency after 72 hrs by luciferase reporter gene assay; format: functional, organism-based, Hepacivirus hominis; settings: genotype 1a H77, Huh-7, Plasma
Hepatitis C virus [4] = assay: Antiviral activity against Hepatitis C virus H77 genotype 1a infected in human HuH7 cells assessed as intrinsic antiviral potency after 72 hrs by luciferase reporter gene assay; format: functional, organism-based, Hepacivirus hominis; settings: genotype 1a H77, Huh-7, 72 h
[5] = Intrinsic cytotoxicity against human MT4 cells after 5 days by Cell Titre Glo assay; format: cell-based
Hepatitis C virus [6] = assay: Antiviral activity against Hepatitis C virus H77 genotype 1a infected in human HuH7 cells assessed as observed antiviral potency after 72 hrs by luciferase reporter gene assay; format: functional, organism-based, Hepacivirus hominis; settings: genotype 1a H77, Huh-7, 72 h
[7] = Mean residence time in Sprague-Dawley rat at 0.5 mg/kg, iv; format: ADME, organism-based; design: dose 0.5 mg/kg, route intravenous; settings: in vivo
[8] = Fraction unbound in cell culture medium at 2 uM at pH 7.4 by equilibrium dialysis method; format: ADME
[9] = Cytotoxicity against human HuH7 cells after 3 days by Cell Titre Glo assay; format: cell-based, Huh-7
Hepatitis C virus [10] = assay: Antiviral activity against Hepatitis C virus Con1 genotype 1b infected in human HuH7 cells after 72 hrs by luciferase reporter gene assay; format: functional, organism-based, Hepacivirus hominis; settings: isolate Con1, Huh-7, 72 h

Compound	chromatographic logD [1]	CC50 at 120 h [2]	EC50 (Hepatitis C virus [3])	EC50 (Hepatitis C virus [4])	CC50 at 120 h [5]	EC50 (Hepatitis C virus [6])	MRT [7]	fraction unbound at 2 µM [8]	CC50 at 72 h [9]	EC50 (Hepatitis C virus [10])
CC(C)(C)C#Cc1cc(N(C(=O)[C@H]2CC[C@H](C)CC2)[C@H]2CC[C@@H](Oc3ccc(O)nn3)CC2)c(C(=O)O)s1	1.8	> 20000 nM	277 nM	2.6 nM	2170 nM	24 nM	0.5 h			
CC(C)N(c1cc(-c2ccccc2)sc1C(=O)O)C(=O)[C@H]1CC[C@H](C)CC1		> 20000 nM		170 nM		2100 nM		0.08	≥ 20000 nM	593 nM
CC(C)(C)C#Cc1cc(N(C(=O)[C@H]2CC[C@H](C)CC2)[C@H]2CC[C@@H](Oc3cccnc3)CC2)c(C(=O)O)s1		> 20000 nM		1.2 nM		45 nM	0.2 h			
CC(C)N(C(=O)C1CCC(F)(F)CC1)c1cc(C#CC(C)(C)C)sc1C(=O)O		> 20000 nM		12800 nM		32100 nM		0.4		
C[C@H]1CC[C@H](C(=O)N(c2cc(C#CC3(C(F)(F)F)CCC3)sc2C(=O)O)[C@H]2CC[C@H](Oc3ccc(O)nn3)CC2)CC1		> 20000 nM	607 nM	2.7 nM		120 nM				
CC(C)(C)C#Cc1cc(N(C(=O)[C@H]2CC[C@H](C)CC2)[C@H]2CC[C@@](O)(CO[C@H]3CCOC3)CC2)c(C(=O)O)s1		> 20000 nM	191 nM	4.3 nM	18100 nM		0.2 h			
C[C@H]1CC[C@H](C(=O)N(c2cc(C#CC3(C(F)(F)F)CC3)sc2C(=O)O)[C@H]2CC[C@H](Oc3ccc(O)nn3)CC2)CC1		> 20000 nM	751 nM	6.9 nM		61 nM				
CC(C)(C#Cc1cc(N(C(=O)[C@H]2CC[C@H](C)CC2)[C@H]2CC[C@H](Oc3ccc(O)nn3)CC2)c(C(=O)O)s1)C(F)(F)F		> 20000 nM	516 nM	4.9 nM		51 nM				
C[C@@H](CCO)N(c1cc(C#CC(C)(C)C)sc1C(=O)O)C(=O)[C@H]1CC[C@H](C)CC1		> 20000 nM		3.3 nM		15 nM		0.22	≥ 20000 nM	7 nM
CC(C)N(C(=O)C1CCCCCC1)c1cc(C#CC(C)(C)C)sc1C(=O)O		> 20000 nM		225 nM		2020 nM		0.11		
CON=C1CCC(N(c2cc(C#CC(C)(C)C)sc2C(=O)O)C(=O)[C@H]2CC[C@H](C)CC2)CC1 (stereo partly drawn)		> 20000 nM		6.1 nM		88 nM		0.07		
CC(C)(C)C#Cc1cc(N(C(=O)[C@H]2CC[C@H](C)CC2)[C@H]2C[C@@H](Oc3cccnc3)C2)c(C(=O)O)s1		> 20000 nM		6.4 nM		156 nM		0.04		
C[C@@H]1CC[C@@H](C(=O)N(c2cc(C#CC(C)(C)C)sc2C(=O)O)[C@H]2CC[C@H](OC3CCOC3)CC2)[C@@H](O)C1 (stereo partly drawn)	2.2	> 20000 nM	138 nM	2 nM	11600 nM		1.9 h			
CC(C)(C)C#Cc1cc(N(C(=O)[C@H]2CC[C@H](C)CC2)[C@H]2CC[C@H](Oc3ccc(=O)[nH]n3)CC2)c(C(=O)O)s1	2	> 20000 nM	285 nM	3.5 nM	1480 nM	39 nM	1.6 h			
CC(C)(C)C#Cc1cc(N(C(=O)[C@H]2CC[C@H](C)CC2)[C@H]2CC[C@H](Oc3ccncn3)CC2)c(C(=O)O)s1	2.3	> 20000 nM	1390 nM	2.8 nM	599 nM	75 nM	7.1 h			
CC(C)N(c1cc(C#CC(C)(C)C)sc1C(=O)O)C(=O)[C@H]1CC[C@H](Cl)CC1		> 20000 nM		44 nM		315 nM		0.14		

Compound	chromatographic logD [1]	CC50 at 120 h [2]	EC50 (Hepatitis C virus [3])	EC50 (Hepatitis C virus [4])	CC50 at 120 h [5]	EC50 (Hepatitis C virus [6])	MRT [7]	fraction unbound at 2 µM [8]	CC50 at 72 h [9]	EC50 (Hepatitis C virus [10])
CC(C)(C#Cc1cc(N(C(=O)[C@H]2CC[C@H](C)CC2)[C@H]2CC[C@H](OC3CCOC3)CC2)c(C(=O)O)s1)CCO (stereo partly drawn)	1.6	> 20000 nM	167 nM	6.1 nM	31300 nM		0.4 h			
CC(C)(C)C#Cc1cc(N(C(=O)[C@H]2CC[C@H](C)CC2)[C@H]2CC[C@H](OC3COC3)CC2)c(C(=O)O)s1	2.6	> 20000 nM	102 nM	4.3 nM	8350 nM					
C[C@@H](CCOc1cccnc1)N(c1cc(C#CC(C)(C)C)sc1C(=O)O)C(=O)[C@H]1CC[C@H](C)CC1		> 20000 nM		2.4 nM		102 nM		0.02		
CC(C)(C)C#Cc1cc(N(C(=O)[C@H]2CC[C@H](C)CC2)C2CCN(S(C)(=O)=O)CC2)c(C(=O)O)s1		> 20000 nM		8.7 nM		51 nM		0.17		
CCC[C@]1(CC(=O)O)OCCc2c1[nH]c1c(C)ccc(C#N)c21		> 20000 nM								
CC(C)(C)C#Cc1cc(N(C(=O)[C@H]2CC[C@H](C)CC2)C2CCN(C(=O)c3cccnc3)CC2)c(C(=O)O)s1		> 20000 nM		43 nM		183 nM		0.23		
CC(C)N(C(=O)[C@@H]1CC[C@@H]2C[C@@H]2CC1)c1cc(C#CC(C)(C)C)sc1C(=O)O		> 20000 nM		88 nM		1620 nM		0.05		
CC1=CC[C@@H](C(=O)N(c2cc(C#CC(C)(C)C)sc2C(=O)O)C(C)C)CC1		> 20000 nM		3.7 nM		45 nM		0.08		
CC(C)N(c1cc(C#CC(C)(C)C)sc1C(=O)O)C(=O)[C@H]1CC[C@H](CF)CC1		> 20000 nM		31 nM		169 nM		0.18		
CC(C)N(C(=O)C1CCCCC1)c1cc(C#CC(C)(C)C)sc1C(=O)O		> 20000 nM		500 nM		2800 nM		0.18		
CC(C)(C)C#Cc1cc(N(C(=O)[C@H]2CC[C@H](C)CC2)[C@H]2CC[C@H](OC3CCOCC3)CC2)c(C(=O)O)s1	2.4	> 20000 nM	1830 nM	2.4 nM	1990 nM					
CC1CC=C(C(=O)N(c2cc(C#CC(C)(C)C)sc2C(=O)O)C(C)C)CC1 (stereo not drawn)		> 20000 nM		65 nM		773 nM		0.08		
CC(C)(C)C#Cc1cc(N(CCO)C(=O)[C@H]2CC[C@H](C)CC2)c(C(=O)O)s1		> 20000 nM				304 nM			≥ 20000 nM	78 nM
CC(C)N(C(=O)[C@H]1CC[C@@H]2C[C@@H]2CC1)c1cc(C#CC(C)(C)C)sc1C(=O)O		> 20000 nM		483 nM		6190 nM		0.08		
CC(C)(C)C#Cc1cc(N(C(=O)[C@H]2CC[C@H](C)CC2)[C@H]2CC[C@H](OC3CCOC3)CC2)c(C(=O)O)s1 (stereo partly drawn)	2.3	> 20000 nM	749 nM	4.3 nM	3070 nM	55 nM	3.5 h			
CC(C)N(C(=O)[C@H]1[C@@H]2CCCC[C@@H]21)c1cc(C#CC(C)(C)C)sc1C(=O)O		> 20000 nM		206 nM		4680 nM		0.04		
